US20210221817A1, “NOVEL HETEROAROMATIC COMPOUNDS AS POTENT MODULATORS OF THE HIPPO-YAP SIGNALING PATHWAY LATS1/2 KINASES” (Nivien Therapeutics Compny, priority 2018, published 2021)

Assays:
LATS1/2 = biological target: T1, LATS1/2; test: TR-FRET LanthaScreen binding assay; settings: LATS1 (aa 589-1130), LATS2 (aa 488-1080), kinase tracer 236
T1 construct: LATS1 (amino acids 589-1130; ThermoFisher, PV6363), LATS2 (amino acids 488-1080; fused on or other part: GST tag, inferred from the LanthaScreen Eu-anti-GST antibody and the ThermoFisher products
Method: IC50 scores were determined using a TR-FRET LanthaScreen binding assay using LATS1 (amino acids 589-1130; ThermoFisher, PV6363), LATS2 (amino acids 488-1080; ThermoFisher, PV6366); kinase tracer 236 (ThermoFisher, PV5592); LanthaScreen Eu-anti-GST (ThermoFisher, PV3189); 5× kinase buffer A (ThermoFisher, PV6135); low-volume 384-well plate format.

[1] = system: ABCG2 transcription in PANC1 cells; test: ABCG2 transcription in PDAC PANC1 cells (FIG. 2); format: cell-based; settings: 25 μM, 48-hour treatment
Method: FIG. 2 is an image showing that the LATS1/2 inhibitors of the invention reduce transcription of ABCG2, a critical multidrug efflux transporter, in PDAC PANC1 cells. The y-axis is the normalized transcription level of ABCG2. The bar labeled ABCG2_control represents PANC1 cells that received no treatment. The bar labeled ABCG2_201 represents PANC1 cells treated with 4-(6-(4-(2-morpholinoethoxy)phenyl)imidazo[1,2-b]pyridazin-3-yl)benzamide (compound 1) at 25 μM. The bar labeled ABCG2_206 represents cells treated with 4-(6-(piperazin-1-yl)imidazo[1,2-b]pyridazin-3-yl)benzamide (compound 2) 25 μM.

[2] = system: YAP phosphorylation in PANC1 cells; test: YAP phosphorylation in PDAC PANC1 cells (FIG. 1); format: cell-based; settings: 48 h; for overall YAP levels / p-YAP levels (YAP phosphorylation): 5 μM and 25 μM
Method: FIG. 1 is an image showing that the LATS1/2 inhibitors of the invention reduce YAP phosphorylation in PDAC PANC1 cells in a dose-dependent manner. FIG. 1 consists of two columns. On the left: the cells were treated with control and 5 μM of each of the compounds of the invention. Control in lane “C.” In lane “1” is 4-(6-(4-(2-morpholinoethoxy)phenyl)imidazo[1,2-b]pyridazin-3-yl)benzamide (compound 1). In lane “2” is 4-(6-(3-aminopiperidin-1-yl)imidazo[1,2-b]pyridazin-3-yl)benzamide (compound 3). In lane “4” is 4-(6-(4-aminopiperidin-1-yl)imidazo[1,2-b]pyridazin-3-yl)benzamide (compound 4). In lane “6” is 4-(6-(piperazin-1-yl)imidazo[1,2-b]pyridazin-3-yl)benzamide (compound 2). In lane “7” is 4-(4-(4-(4-chlorophenyl)piperidin-4-yl)phenyl)-3-methyl-1H-pyrazolo[4,3-c]pyridine (compound 5).
(§1) On the left: the cells were treated with control and 25 μM of each of the compounds of the invention. Control in lane “C.” In lane “1” is 4-(6-(4-(2-morpholinoethoxy)phenyl)imidazo[1,2-b]pyridazin-3-yl)benzamide (compound 1). In lane “2” is 4-(6-(3-aminopiperidin-1-yl)imidazo[1,2-b]pyridazin-3-yl)benzamide (compound 3). In lane “4” is 4-(6-(4-aminopiperidin-1-yl)imidazo[1,2-b]pyridazin-3-yl)benzamide (compound 4). In lane “6” is 4-(6-(piperazin-1-yl)imidazo[1,2-b]pyridazin-3-yl)benzamide (compound 2). In lane “7” is 4-(4-(4-(4-chlorophenyl)piperidin-4-yl)phenyl)-3-methyl-1H-pyrazolo[4,3-c]pyridine (Compound 5).
(§2) YAP is stained for Yes-associated protein; p-YAP is stained for phosphorylated Yes-associated protein; GAPDH is a standard protein loading control.

PANC1 cells = test: Killing of PANC1 cells observed in the FIG. 1 experiment; format: cell-based; settings: higher dose (25 μM)
Method: as §1, §2

| SMILES | IC50 (LATS1/2) [µM] | ABCG2 transcription levels [1] | overall YAP levels [2] | p-YAP levels (YAP phosphorylation) [2] | p-YAP levels at the lower dose ([2]; lower dose (5 μM)) | killing of PANC1 cells at the higher dose (PANC1 cells) |
| --- | --- | --- | --- | --- | --- | --- |
| NC(=O)c1ccc(-c2cnc3ccc(-c4ccc(OCCN5CCOCC5)cc4)nn23)cc1 [Compound 1, 4-(6-(4-(2-Morpholinoethoxy)phenyl)imidazo[1,2-b]pyridazin-3-yl)benzamide] | 0.01 to 1 | reduce ABCG2 transcription levels | without impacting overall YAP levels | reduce p-YAP levels | – | – |
| NC(=O)c1ccc(-c2cnc3ccc(N4CCCC(N)C4)nn23)cc1 (stereo not shown) [Compound 3, 4-(6-(3-Aminopiperidin-1-yl)imidazo[1,2-b]pyridazin-3-yl)benzamide] | 0.0001 to 0.05 | – | – | – | – | – |

Continued, in another order:

| IC50 (LATS1/2) [µM] | SMILES | ABCG2 transcription levels [1] | overall YAP levels [2] | p-YAP levels (YAP phosphorylation) [2] | p-YAP levels at the lower dose ([2]; lower dose (5 μM)) | killing of PANC1 cells at the higher dose (PANC1 cells) |
| --- | --- | --- | --- | --- | --- | --- |
| 0.0001 to 0.05 | NC(=O)c1ccc(-c2cnc3ccc(N4CCNCC4)nn23)cc1 [Compound 2, 4-(6-(piperazin-1-yl)imidazo[1,2-b]pyridazin-3-yl)benzamide] | reduce ABCG2 transcription levels | without impacting overall YAP levels | reduce p-YAP levels | – | – |
| 0.0001 to 0.05 | NC(=O)c1ccc(-c2cnc3ccc(N4CCC(N)CC4)nn23)cc1 [Compound 4, 4-(6-(4-Aminopiperidin-1-yl)imidazo[1,2-b]pyridazin-3-yl)benzamide] | – | – | – | – | – |
| 0.0001 to 0.05 | Cc1n[nH]c2ccnc(-c3ccc(C4(c5ccc(Cl)cc5)CCNCC4)cc3)c12 [Compound 5, 4-(4-(4-(4-chlorophenyl)piperidin-4-yl)phenyl)-3-methyl-1H-pyrazolo[4,3-c]pyridine] | – | – | – | reduced p-YAP levels | killed all PANC1 cells |
